Columns and labels:
[1] = molecular target: T1, 17β-hydroxysteroid dehydrogenase type 10 (HSD10) (Homo sapiens, UniProt Q99714); assay: (-)-CHANA fluorogenic probe turnover in HSD10-overexpressing HEK293 cells; type: cell-based
T1 construct: gene HSD17B10; HSD10 overexpressed in HEK293 cells
T1 sequence (Q99714 2-261): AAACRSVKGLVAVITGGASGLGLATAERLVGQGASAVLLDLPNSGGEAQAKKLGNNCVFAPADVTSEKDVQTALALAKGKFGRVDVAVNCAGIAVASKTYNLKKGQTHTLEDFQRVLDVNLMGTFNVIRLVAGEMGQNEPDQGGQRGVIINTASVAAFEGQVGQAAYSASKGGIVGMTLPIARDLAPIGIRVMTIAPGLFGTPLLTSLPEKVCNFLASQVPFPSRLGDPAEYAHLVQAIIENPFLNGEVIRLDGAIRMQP

[2] = molecular target: amyloid-β 42 Aβ1-42 (Homo sapiens) (UniProt P05067); conditions: cited from earlier work
amyloid-β 42 Aβ1-42 (Homo sapiens), sequence (P05067 1-42): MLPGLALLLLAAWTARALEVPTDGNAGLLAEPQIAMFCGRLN

| Molecule | IC50 [1] [µM] | Kd [2] [µM] |
| --- | --- | --- |
| O=C(C(c1ccccc1)n1cnc2[nH]ncc2c1=S)N1CCCCCC1 (stereo not drawn) [AG18051] | 0.19 | – |
| COc1ccc2nc(NC(=O)c3ccc(O)c(Cl)c3)sc2c1 [compound 34, inhibitor 34] | 4.26 | – |
| HSD10 (from UniProt Q99714) | – | 0.0558 |

Reference: PMC12285154, “New insights into the 17β-hydroxysteroid dehydrogenase type 10 and amyloid-β 42 derived cytotoxicity relevant to Alzheimer’s disease” (Alzheimer's Research & Therapy, 2025)
